# According to patent publication US20260076973A1 (priority 2023, published 2026):
# Counter-ions that a name gives are not always drawn.
# System: SARS-CoV-2 (WA1)
# Assay: microbe, parasite or virus in culture
# Format: cell-based
# Details: Severe acute respiratory syndrome coronavirus 2, Vero C1008
row,SMILES,IC50 [µM]
1,"Cc1ccc(Nc2nc(N3CCOCC3)nc(N3CCOCC3)n2)cc1C [VIRADEM-10884, (3,4-dimethylphenyl)-(4,6-dimorpholin-4-yl-[1,3,5]triazin-2-yl)-amine]",0.08

# Same assay, conditions: Severe acute respiratory syndrome coronavirus 2, Vero C1008, VIRADEM compounds, SARS-CoV-2(WA1) CPE assay, Round 2, concentration range 1000-0.05 nM, Vero E6; read-out: IC50
row,SMILES,IC50 [µM]
1,"CCOc1ccc(Nc2nc(N3CCOCC3)nc(N3CCOCC3)n2)cc1 [VIRADEM-9794, (4,6-Dimorpholin-4-yl-[1,3,5]triazin-2-yl)-(4-ethoxyphenyl)-amine hydrochloride]",> 1
2,"CCCCc1ccc(Nc2nc(N3CCOCC3)nc(N3CCOCC3)n2)cc1 [VIRADEM-10257, (4-n-Butylphenyl)-(4,6-dimorpholin-4-yl-[1,3,5]triazin-2-yl)-amine hydrochloride]",> 1
3,"Clc1ccc(Nc2nc(N3CCOCC3)nc(N3CCOCC3)n2)cc1Cl [VIRADEM-10258, (3,4-Dichlorophenyl)-(4,6-dimorpholin-4-yl-[1,3,5]triazin-2-yl)-amine hydrochloride]",0.61
4,"c1ccc(Nc2nc(N3CCOCC3)nc(N3CCOCC3)n2)cc1 [VIRADEM-10846, (4,6-Dimorpholin-4-yl-[1,3,5]triazin-2-yl)-phenylamine hydrochloride]",> 1
5,"Cc1cccc(Nc2nc(N3CCOCC3)nc(N3CCOCC3)n2)c1 [VIRADEM-10848, (4,6-Dimorpholin-4-yl-[1,3,5]triazin-2-yl)-m-tolyl-amine hydrochloride]",> 1
6,"Fc1ccc(Nc2nc(N3CCOCC3)nc(N3CCOCC3)n2)cc1 [VIRADEM-10849, (4,6-Dimorpholin-4-yl-[1,3,5]triazin-2-yl)-(4-fluorophenyl)-amine hydrochloride]",> 1
7,"S=C(NNc1nc(N2CCOCC2)nc(N2CCOCC2)n1)Nc1ccccc1 [VIRADEM-10867, 2-(4,6-dimorpholine-4-yl-1,3,5-triazine-2-yl)-N-phenylhydrazine-carbothioamide]",> 1
8,"COc1cccc(Nc2nc(N3CCOCC3)nc(N3CCOCC3)n2)c1 [VIRADEM-10879, (4,6-Dimorpholin-4-yl-[1,3,5]triazin-2-yl)-(3-methoxyphenyl)-amine hydrochloride]",> 1
9,"COc1ccccc1Nc1nc(N2CCOCC2)nc(N2CCOCC2)n1 [VIRADEM-10881, (4,6-Dimorpholin-4-yl-[1,3,5]triazin-2-yl)-(2-methoxyphenyl)-amine hydrochloride]",> 1
10,"Cc1ccc(Nc2nc(N3CCOCC3)nc(N3CCOCC3)n2)cc1 [VIRADEM-10882, (4,6-Dimorpholin-4-yl-[1,3,5]triazin-2-yl)-p-tolyl-amine hydrochloride]",> 1
11,"CCc1ccc(Nc2nc(N3CCOCC3)nc(N3CCOCC3)n2)cc1 [VIRADEM-10883, (4,6-Dimorpholin-4-yl-[1,3,5]triazin-2-yl)-(4-ethylphenyl)-amine hydrochloride]",0.99
12,"COc1ccc(Nc2nc(N3CCOCC3)nc(N3CCOCC3)n2)cc1 [VIRADEM-10885, (4,6-Dimorpholin-4-yl-[1,3,5]triazin-2-yl)-(4-methoxyphenyl)-amine hydrochloride]",> 1
13,"Cc1ccc(Nc2nc(N3CCOCC3)nc(N3CCOCC3)n2)cc1Cl [VIRADEM-10886, (3-Chloro-4-methylphenyl)-(4,6-dimorpholin-4-yl-[1,3,5]triazin-2-yl)-amine hydrochloride]",0.31
14,"Cc1cc(C)cc(Nc2nc(N3CCOCC3)nc(N3CCOCC3)n2)c1 [VIRADEM-10887, (3,5-Dimethylphenyl)-(4,6-dimorpholin-4-yl-[1,3,5]triazin-2-yl)-amine]",> 1
15,"FC(F)(F)Oc1ccc(Nc2nc(N3CCOCC3)nc(N3CCOCC3)n2)cc1 [VIRADEM-10891, (4,6-Dimorpholin-4-yl-[1,3,5]triazin-2-yl)-(4-trifluoromethoxyphenyl)-amine hydrochloride]",> 1
16,"c1ccc(Oc2ccc(Nc3nc(N4CCOCC4)nc(N4CCOCC4)n3)cc2)cc1 [VIRADEM-10892, (4,6-Dimorpholin-4-yl-[1,3,5]triazin-2-yl)-(4-phenoxyphenyl)-amine hydrochloride]",> 1
17,"Fc1ccc(Nc2nc(N3CCOCC3)nc(N3CCOCC3)n2)cc1Cl [VIRADEM-10893, (3-Chloro-4-fluorophenyl)-(4,6-dimorpholin-4-yl-[1,3,5]triazin-2-yl)-amine hydrochloride]",> 1
18,"Clc1ccc(Nc2nc(N3CCOCC3)nc(N3CCOCC3)n2)cc1 [VIRADEM-10894, (4-Chlorophenyl)-(4,6-dimorpholin-4-yl-[1,3,5]triazin-2-yl)-amine hydrochloride]",0.84

row,SMILES,IC50 [µM]
1,"Clc1cccc(Nc2nc(N3CCOCC3)nc(N3CCOCC3)n2)c1 [VIRADEM-10902, (3-Chlorophenyl)-(4,6-dimorpholin-4-yl-[1,3,5]triazin-2-yl)-amine hydrochloride]",> 1
2,"C1CCN(c2nc(N3CCOCC3)nc(N3CCOCC3)n2)CC1 [VIRADEM-10903, 2,4-Dimorpholin-4-yl-6-piperidin-1-yl-[1,3,5]triazin hydrochloride]",> 1
3,"COc1ccc(Nc2nc(N3CCCCC3)nc(N3CCCCC3)n2)cc1 [VIRADEM-11041, (4,6-Dipiperidine-1-yl-[1,3,5]triazin-2-yl)-(4-methoxyphenyl)-amine hydrochloride]",> 1
4,"Cc1ccc(Nc2nc(C3CCNC3)nc(C3CCNC3)n2)cc1 (stereo not drawn) [VIRADEM-11139, (4,6-Dipyrrolidin-4-yl-[1,3,5]triazin-2-yl)-p-tolyl-amine hydrochloride]",> 1
5,"Clc1cccc(Nc2nc(N3CCCCC3)nc(N3CCCCC3)n2)c1 [VIRADEM-11499, (3-Chlorophenyl)-(4,6-dipiperidine-1-yl-[1,3,5]triazin-2-yl)-amine hydrochloride]",> 1
6,"c1ccc(Oc2ccc(Nc3nc(C4CCNC4)nc(C4CCNC4)n3)cc2)cc1 (stereo not drawn) [VIRADEM-11503, (4,6-Dipyrrolidin-4-yl-[1,3,5]triazin-2-yl)-(4-phenoxyphenyl)-amine hydrochloride]",> 1
7,"CC(=O)Nc1ccc(Nc2nc(N3CCCC3)nc(N3CCCC3)n2)cc1 [VIRADEM-11510, N-[4-(4,6-Dipyrrolidin-1-yl-[1,3,5]triazin-2-ylamino)-phenyl]-acetamide hydrochloride]",> 1
8,"CCCCc1ccc(Nc2nc(N3CCCC3)nc(N3CCCC3)n2)cc1 [VIRADEM-11511, (4-Butylphenyl)-(4,6-dipyrrolidin-1-yl-[1,3,5]triazin-2-yl)-amine hydrochloride]",> 1
9,"CCOc1ccc(Nc2nc(N3CCCC3)nc(N3CCCC3)n2)cc1 [VIRADEM-11515, (4,6-Dipyrrolidin-1-yl-[1,3,5]triazin-2-yl)-(4-ethoxyphenyl)-amine hydrochloride]",> 1
10,"c1cc2c(cc1Nc1nc(N3CCCC3)nc(N3CCCC3)n1)OCO2 [VIRADEM-11522, Benzo[1,3]dioxol-5-yl-(4,6-dipyrrolidin-1-yl-[1,3,5]triazin-2-yl)-amine hydrochloride]",> 1
11,"c1ccc(Nc2nc(N3CCCC3)nc(N3CCCC3)n2)cc1 [VIRADEM-11528, (4,6-Dipyrrolidin-1-yl-[1,3,5]triazin-2-yl)-phenylamine hydrochloride]",> 1
12,"c1cc2c(cc1Nc1nc(Nc3ccc4c(c3)OCO4)nc(N3CCOCC3)n1)OCO2 [VIRADEM-11566, N,N^1-bis-benzo[1,3]dioxol-5-yl-6-morpholin-4-yl-[1,3,5]triazine-2,4-diamine]",0.32
13,"COc1ccccc1Nc1nc(N2CCCC2)nc(N2CCCC2)n1 [VIRADEM-11597, (4,6-Dipyrrolidin-1-yl-[1,3,5]triazin-2-yl)-(2-methoxyphenyl)-amine hydrochloride]",> 1
14,"CCOC(=O)c1ccc(Nc2nc(Nc3ccc(F)cc3)nc(N3CCOCC3)n2)cc1 [VIRADEM-11660, 4-[4-(4-Fluorophenylamino)-6-morpholin-4-yl-[1,3,5]triazin-2-ylamino]benzoic acid ethyl ester]",0.12
15,"NC1=NC(Nc2ccc3c(c2)OCO3)N(c2ccc(F)cc2)C(N2CCOCC2)=N1 (stereo not drawn) [VIRADEM-11674, N-Benzo[1,3]dioxol-5-yl-N^1-(4-fluorophenyl)-6-morpholin-4-yl-[1,3,5]triazine-2,4-diamine hydrochloride]",0.2
16,"Cc1cccc(N2C(N3CCOCC3)=NC(N)=NC2Nc2ccc(Cl)cc2)c1 (stereo not drawn) [VIRADEM-11680, N-(4-Chlorophenyl)-6-morpholin-4-yl-N^1-m-tolyl-[1,3,5]triazine-2,4-diamine hydrochloride]",> 1
17,"CC(=O)c1cccc(Nc2nc(Nc3cccc(C)c3)nc(N3CCOCC3)n2)c1 [VIRADEM-11778, 1-[3-(4-Morpholin-4-yl-6-m-tolylamino-[1,3,5]triazin-2-ylamino)-phenyl]-ethanone hydrochloride]",0.32
18,"Cc1cccc(N2C(N3CCOCC3)=NC(N)=NC2Nc2cccc(Cl)c2)c1 (stereo not drawn) [VIRADEM-11781, N-(3-Chlorophenyl)-6-morpholin-4-yl-N^1-m-tolyl-[1,3,5]triazine-2,4-diamine hydrochloride]",0.11

# Same assay, conditions: VIRADEM compounds, SARS-CoV-2(WA1) CPE assay, Round 2, concentration range 1000-0.05 nM, Vero E6; read-out: IC50
row,SMILES,IC50 [µM]
1,"COC(=O)c1ccc(Nc2nc(N3CCOCC3)nc(N3CCOCC3)n2)cc1 [VIRADEM-10890, 4-(4,6-Dimorpholin-4-yl-[1,3,5]triazin-2-ylamino-benzoic acid methyl ester hydrochloride]",> 1
2,"c1cc2c(cc1Nc1nc(N3CCCC3)nc(N3CCCC3)n1)OCCO2 [VIRADEM-11596, -(2,3-dihydrobenzo[1,4]dioxin-6-yl)-(4,6-dipyrrolidin-1-yl-[1,3,5]triazin-2-yl)-amine hydrochloride]",> 1
3,"CCc1ccc(Nc2nc(Nc3ccc(Cl)c(Cl)c3)nc(N3CCOCC3)n2)cc1 [VIRADEM-11758, N-(3,4-Dichlorophenyl)-N^1-(4-ethyphenyl)-6-morpholin-4-yl-[1,3,5]triazine-2,4-diamine]",> 1
4,"Cc1cc(C)cc(Nc2nc(Nc3ccc(Cl)c(Cl)c3)nc(N3CCOCC3)n2)c1 [VIRADEM-11759, N-(3,4-Dichlorophenyl)-N^1-(3,5-dimethyphenyl)-6-morpholin-4-yl-[1,3,5]triazine-2,4-diamine]",0.35
5,"CCNc1nc(NCC)nc(Nc2ccc(C)c(C)c2)n1 [VIRADEM-11768, N-(3,4-Dimethylhenyl)-N^1,N^2-diethyl-[1,3,5]triazine-2,4,6-triamine hydrochloride]",> 1
